Test results as given in patent US7572803B2 (The Christus Stehlin Foundation for Cancer Research, priority 2007, dated 2009).
Values joined by “and” are separate entries in the source; they are usually repeats but may differ in a detail not shown here. Equal values may be shown once.

Legend:
FOSS melanoma line = assay: Effective dose, FOSS xenograft in nude mice; type: in vivo, human; details: oral, dose giving positive response
Procedure: (§1) In vivo anti-tumor activity determination. All the animal experiments were performed on nude Swiss mice of the NIH, high-fertility strain. They were bred and raised in laboratory under strict pathogen-free conditions. For anti-tumor activity determination, a tumor xenograft growing in a nude mouse, approximately 1 cm^3 in size, was surgically removed under sterile conditions, finely minced with iridectomy scissors, and suspended in cell culture medium at the ratio 1:10, v/v. One half of 1 mL of this suspension, containing about 50 mg of wet-weight tumor mince was subcutaneously inoculated on the upper half of the dorsal thorax of the mouse. Groups of four or five animals were used. Hydrated crystalline CZ48 was finely suspended in cottonseed oil and then injected into the stomach cavity of the mouse through the anterior abdominal wall using a 26 gauge needle. The weekly schedule used for oral administration of hydrated crystalline CZ48 was once a day for 7 days, or five days on and two days off. This schedule was employed throughout all the animal experiments. Treatment was initiated when the tumor had reached a volume of about 200 mm^3, i.e., well-vascularized, measurable, and growing exponentially. Tumors growing in animals were checked and measured with a caliper once a week. The effective doses were established when a positive response in mouse was reached.

human DSRCT line = assay: Anti-tumor activity, DSRCT xenografts in nude mice; type: in vivo; details: oral
Description: (§2) In vivo anti-tumor activity determination. The human tumors used in the experiments discussed herein included 1 bladder line, 3 breast lines, 4 colon lines, 1 DSRCT line, 1 kidney line, 2 melanoma lines, 2 lung lines, 7 pancreatic lines, and 1 prostate line. The hydrated crystalline CZ48 drug was finely suspended in cottonseed oil and stored in a refrigerator for using. The suspension was orally administered to the mice bearing human tumors once a day continuously for 5 days on and 2 days off or once a day for seven days for the whole treatment period. The treatment period for the various tumor lines varied, ranging from two weeks to one year. […] With the continuous schedule (daily treatment), one of those two negatively responded pancreatic tumor lines under the 5/2 schedule achieved the positive response.
(§3) In vivo anti-tumor activity determination. All the animal experiments were performed on nude Swiss mice of the NIH, high-fertility strain. They were bred and raised in laboratory under strict pathogen-free conditions. For anti-tumor activity determination, a tumor xenograft growing in a nude mouse, approximately 1 cm^3 in size, was surgically removed under sterile conditions, finely minced with iridectomy scissors, and suspended in cell culture medium at the ratio 1:10, v/v. […] Tumors growing in animals were checked and measured with a caliper once a week. […]

SQU colon tumor line = assay: Effective dose, SQU xenograft in nude mice; type: in vivo, human; details: oral, dose giving positive response
Procedure: as §1

[1] = system: ASPC1 pancreas tumor line; assay: Effective dose, ASPC1 xenograft in nude mice; type: in vivo, human; details: oral, dose giving positive response
Procedure: as §1

BRO melanoma line = assay: Effective dose, BRO xenograft in nude mice; type: in vivo, human; details: oral, dose giving positive response
Procedure: as §1

CAK-kidney = assay: Effective dose, CAK xenograft in nude mice; type: in vivo, human; details: oral, dose giving positive response
Procedure: as §1

SPA lung tumor line = assay: Effective dose, SPA xenograft in nude mice; type: in vivo, human; details: oral, dose giving positive response
Procedure: as §1

DOY lung tumor line = assay: Effective dose, DOY xenograft in nude mice; type: in vivo, human; details: oral, dose giving positive response
Procedure: as §1

[2] = Determination of PK parameters after oral administration to nude mice; type: in vivo
Procedure: The determination of PK parameters of crystalline CZ48 hydrate. Pharmacokinetic profile of crystalline camptothecin-20-O-propionate hydrate with a single dose of 2000 mg/kg was recorded following an oral administration to nude mice. […] Camptothecin-20-O-acetate, an analogue of CZ48 which was not a crystalline hydrate, was used as an internal standard for determining all PK parameters of the CZ48 hydrate. A 100 μL plasma from the mouse treated with crystalline CZ48 hydrate at dose of 2000 mg/kg was transferred into a 2-mL test-tube, and then 100 μL of internal-standard working solution (400 ng/mL) was also added to the tube. To the mixture, were also added 200 μL of 1% acetic acid solution and 1 mL ethyl ether. After vortex-mixing for 10 s, the mixture was incubated at room temperature on a shaker for 10 min, and then centrifuged at 10,000×g for 15 min. The upper layer obtained from the centrifugation was transferred into a clean tube and evaporated to dryness using an evaporator at 40° C. under a stream of nitrogen. The residue was reconstituted in 200 μL of water/acetonitrite (50/50, v/v) solvent system, and a 20-μL portion of the aliquot was injected into HPLC system for analysis. For the study, A 100 μL blank plasma from untreated mouse was also processed in the same manner as the treated.

[3] = system: MiaPaCa2 pancreas tumor line; assay: Effective dose, MiaPaCa2 xenograft in nude mice; type: in vivo, human; details: oral, dose giving positive response
Procedure: as §1

[4] = In situ single-pass intestinal perfusion, percentage absorption in mouse; type: in vivo, nude mice
Procedure: The determination of percentage absorption of crystalline CZ48 hydrate in mouse. Absorption studies were also performed with crystalline camptothecin-20-O-propionate hydrate by using a mouse perfusion procedure on 4 nude mice. Prior to the in situ single-pass perfusion procedure, HBSS buffer (pH 7.4) consisting of 9.801 g/L HBSS powders, 0.372 g/L NaHCO3, 3.502 g/L glucose, 5.963 g/L HEPES, and 1.164 g/L NaCl was prepared and stored in a refrigerator. The perfusate for the procedure was prepared by mixing a certain amount of the drug, crystalline CZ48 hydrate, with an amount of HBSS buffer. The mixture was heated up to 37° C. (body temperature) right before use. A group of 4 mice with weights ranging from 25 to 30 grams and ages ranging from 9 to 11 months were anesthetized and placed onto a heating plate. The plate was maintained a constant temperature of 37° C. After a perfusion system was set ready with a mouse, two segments of the intestine (small intestine, IS, and colon) were simultaneously perfused with the freshly prepared perfusate. The pump was maintained at a constant flow-rate of 0.191 mL/min for the whole perfusion. Two perfusate samples were collected from each outlet (SI tract or colon) every 30 min. The concentrations of the drug in perfusate from the outlets were determined by HPLC analysis, and the corresponding percentage absorptions were calculated relative to the starting amount of the drug and shown in Table 5.

human Bladder tumor line = assay: Anti-tumor activity, bladder tumor xenografts in nude mice; type: in vivo; details: oral
Description: as §2, §3

CLO-breast carcinoma = assay: Effective dose, CLO xenograft in nude mice; type: in vivo, human; details: oral
Procedure: as §1

PANC1-pancreas = assay: Effective dose, PANC1 xenograft in nude mice; type: in vivo, human; details: oral, dose giving positive response
Procedure: as §1

human Lung tumor lines = assay: Anti-tumor activity, lung tumor xenografts in nude mice; type: in vivo; details: oral
Description: as §2, §3

WAR breast tumor line = assay: Effective dose, WAR xenograft in nude mice; type: in vivo, human; details: oral, dose giving positive response
Procedure: as §1

SU86.86-pancreas = assay: Effective dose, SU86.86 xenograft in nude mice; type: in vivo, human; details: oral, dose giving positive response
Procedure: as §1

MUR breast tumor line = assay: Effective dose, MUR xenograft in nude mice; type: in vivo, human; details: oral, dose giving positive response
Procedure: as §1

LIE pancreas tumor line = assay: Effective dose, LIE xenograft in nude mice; type: in vivo, human; details: oral, dose giving positive response
Procedure: as §1

SW48 colon tumor line = assay: Effective dose, SW48 xenograft in nude mice; type: in vivo, human; details: oral, dose giving positive response
Procedure: as §1

McC colon tumor line = assay: Effective dose, McC xenograft in nude mice; type: in vivo, human; details: oral, dose giving positive response
Procedure: as §1

human Breast tumor lines = assay: Anti-tumor activity, breast tumor xenografts in nude mice; type: in vivo; details: oral
Description: as §2, §3

human xenografts = assay: In vivo anti-tumor activity against human tumor xenografts in nude mice (all lines); details: oral, cottonseed oil suspension, 5 days-on and 2 days-off schedule
Description: as §2, §3

[5] = system: PC3P62 prostate tumor line; assay: Effective dose, PC3P62 xenograft in nude mice; type: in vivo, human; details: oral, dose giving positive response
Procedure: as §1

BOL bladder tumor line = assay: Effective dose, BOL xenograft in nude mice; type: in vivo, human; details: oral, dose giving positive response
Procedure: as §1

[6] = system: HS766T pancreas tumor line; assay: Effective dose, HS766T xenograft in nude mice; type: in vivo, human; details: oral, dose giving positive response
Procedure: as §1

[7] = In vivo toxicity determination (body weight) in nude mice; details: continuously for 60 days
Procedure: In vivo toxicity determination. Groups of 4 or 5 animals of about the same age and having similar weights were chosen and treated with crystalline CZ48 hydrate orally at doses of 1500 mg/kg and 2000 mg/kg, respectively, continuously for 60 days. The 3 groups of mice chosen for the toxicity studies were healthy, of similar age and weights, and non-tumor-bearing. One group was used as control, and the other two groups were treated with the drug at two high-dose levels, 1500 mg/kg and 2000 mg/kg respectively, for about two months. The body weight changes in animals during the treatment were recorded for the treated group versus the untreated group beginning at day 0 and ending at the 60th day.
The body-weight loss was used as a parameter to measure the toxicity of the agent. Usually, body weight loss of 10% or more in mice during treatment is considered a sign of toxicity. Greater body-weight loss signifies greater toxicity.

human Colon tumor lines = assay: Anti-tumor activity, colon tumor xenografts in nude mice; type: in vivo; details: oral
Description: as §2, §3

human Melanoma lines = assay: Anti-tumor activity, melanoma xenografts in nude mice; type: in vivo; details: oral
Description: as §2, §3

[8] = system: human Pancreas tumor lines; assay: Anti-tumor activity, pancreatic tumor xenografts in nude mice; type: in vivo; details: oral
Description: as §2
as §1, with “Treatment was initiated when the tumor had reached a volume of about 200 mm^3, i.e., well-vascularized, measurable, and growing exponentially.” left out, “The effective doses were established when a positive response in mouse was reached.” left out

HT29 colon tumor line = assay: Effective dose, HT29 xenograft in nude mice; type: in vivo, human; details: oral, dose giving positive response
Procedure: as §1

MYE DSRCT line = assay: Effective dose, MYE xenograft in nude mice; type: in vivo, human; details: oral, dose giving positive response
Procedure: as §1

human tumor xenografts = details: in mice, against human tumor xenografts; cited from earlier work
[9] = Pharmacokinetics for CPT in human plasma (lactone ring intact); type: in vitro ADME; details: read-out: half-life time of the drug with the lactone ring intact

## CCC(=O)O[C@]1(CC)C(=O)OCc2c1cc1n(c2=O)Cc2cc3ccccc3nc2-1 [hydrated crystalline CZ48, crystalline camptothecin-20-O-propionate hydrate]
FOSS melanoma line
  Effective dose: 300 mg/kg
Human DSRCT line
  Response Positive (inhibition of growth bigger than 50%), lines responding/tested: 1/1
SQU colon tumor line
  Effective dose: 30 mg/kg
[1]
  Effective dose: 300 mg/kg
BRO melanoma line
  Effective dose: 100 mg/kg
CAK-kidney
  Effective dose: 1000 mg/kg
SPA lung tumor line
  Effective dose: 100 mg/kg
DOY lung tumor line
  Effective dose: 15 mg/kg
[2]; nude, mouse, in vivo, po, 2000 mg/kg
  AUC(0-t): 1930 ± 114 ng·h/mL
[3]
  Effective dose: 100 mg/kg
[4]; colon, average of 4 mice
  % Crystalline CZ48 Hydrate Absorptions, Colon, Ave: −19.46%
[4]; colon, individual mice No. 1-4, HBSS pH 7.4, 37° C., 0.191 mL/min, listed as Crystalline CZ48 Hydrate, hydrate
  % Crystalline CZ48 Hydrate Absorptions, Colon: 8.04% and −35.17% and −73.24% and 6.82%
[4]; small intestine, average of 4 mice
  % Crystalline CZ48 Hydrate Absorptions, SI, Ave: 22.23%
[4]; small intestine, individual mice No. 1-4, HBSS pH 7.4, 37° C., 0.191 mL/min, listed as Crystalline CZ48 Hydrate, hydrate
  % Crystalline CZ48 Hydrate Absorptions, SI: 11.49% and 16.51% and 9.34% and 45.85%
Human Bladder tumor line
  Response Positive (inhibition of growth bigger than 50%), lines responding/tested: 1/1
CLO-breast carcinoma; CLO (Breast), nude mice, dose giving positive response
  Effective dose: 4 mg/kg
CLO-breast carcinoma; CLO-breast carcinoma, dose 4 mg/kg
  tumor growth inhibition: complete inhibition
PANC1-pancreas
  Effective dose: 1000 mg/kg
Human Lung tumor lines
  Response Positive (inhibition of growth bigger than 50%), lines responding/tested: 2/2
WAR breast tumor line
  Effective dose: 200 mg/kg
SU86.86-pancreas
  Effective dose: 1000 mg/kg
MUR breast tumor line
  Effective dose: 300 mg/kg
LIE pancreas tumor line
  Effective dose: 100 mg/kg
SW48 colon tumor line
  Effective dose: 100 mg/kg
McC colon tumor line
  Effective dose: 300 mg/kg
Human Breast tumor lines
  Response Positive (inhibition of growth bigger than 50%), lines responding/tested: 3/3
Human xenografts
  tumor lines that achieved positive response (greater than 50% inhibition in tumor-growth inhibition): 18 lines
[5]
  Effective dose: 300 mg/kg
BOL bladder tumor line
  Effective dose: 200 mg/kg
[6]
  Effective dose: 100 mg/kg
[7]; 1500 mg/kg and 2000 mg/kg orally, non-tumor-bearing mice
  toxicity in the treated mice: no noticeable toxicity
[7]; oral, implied from no significant body-weight loss
  dose mice could tolerate: higher than 2000 mg/kg
Human Colon tumor lines
  Response Positive (inhibition of growth bigger than 50%), lines responding/tested: 4/4
Human Melanoma lines
  Response Positive (inhibition of growth bigger than 50%), lines responding/tested: 2/2
[8]; Pancreas, nude mice
  Response Negative (inhibition of growth smaller than 50%), lines/tested: 1/7
  Response Positive (inhibition of growth bigger than 50%), lines responding/tested: 6/7
[8]; 5 days-on and 2 days-off schedule
  pancreatic tumor lines that failed to obtain the positive response: 2 lines
HT29 colon tumor line
  Effective dose: 50 mg/kg
MYE DSRCT line
  Effective dose: 100 mg/kg

## CC[C@@]1(O)C(=O)OCc2c1cc1n(c2=O)Cc2cc3c([N+](=O)[O-])cccc3nc2-1 [9-nitrocamptothecin]
Human tumor xenografts
  potency relative to CPT: 2-3 times

## CC[C@@]1(O)C(=O)OCc2c1cc1n(c2=O)Cc2cc3ccccc3nc2-1 [CPT, camptothecin, reference compound]
[9]
  half-life: ~30 min
[2]; mice, oral hydrated crystalline CZ48 2000 mg/kg, plasma, CPT = major metabolite
  Ke: 0.40 ± 0.13 h⁻¹
